# According to US20240025906A1 (NEURON23, INC., priority 2022, published 2024):
# Where two headings read alike, the source gives them in different places.
# Key:
# [1] = system: JAK1/TYK2 pSTAT5 (Tyr694/699) in THP-1 cell line; assay: IFNa-stimulated JAK1/TYK2 pSTAT5 (Tyr694/699) inhibition cellular assay, AlphaLISA; assay type: cell-based; details: Homo sapiens, THP-1 cells, AlphaLISA (Assay B)
# Method in brief: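 An eight-point 6-fold titration of compound (0.04–10000 nM final) is given to THP-1 cells for 1 h before 30 min of IFNa exposure. Phospho-STAT5 is read by AlphaLISA at 615 nm. IC50 values are derived by logistic regression with bottom set to 0 and Hill slope set to −1.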
# [2] = target: T1, TYK2 JH2 (Homo sapiens, UniProt P29597); assay: TYK2 JH2 binding assay (KINOMEscan KdELECT competitive binding); details: TYK2 JH2 domain
# T1 construct: purchased DiscoverX (KINOMEscan KdELECT service); host or cells: E. coli BL21-derived (T7 phage display) or HEK-293
# T1 sequence (P29597 589-875 limits assumed): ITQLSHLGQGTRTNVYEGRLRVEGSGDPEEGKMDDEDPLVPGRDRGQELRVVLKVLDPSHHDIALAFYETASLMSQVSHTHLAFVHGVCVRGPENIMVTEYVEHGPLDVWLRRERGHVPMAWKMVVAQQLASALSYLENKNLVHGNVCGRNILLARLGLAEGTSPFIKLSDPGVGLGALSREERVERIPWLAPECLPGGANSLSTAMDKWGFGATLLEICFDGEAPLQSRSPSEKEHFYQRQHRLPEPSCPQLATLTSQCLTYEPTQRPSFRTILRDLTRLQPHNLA
# Method in brief: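 Kd values come from qPCR measurement of kinase retained on an immobilized-ligand resin after 1 h room-temperature competition with compound in an 11-point, 3-fold series.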
# [3] = IFNa-stimulated, read-out: Cellular_THP1_IFNa-pSTATS_TYK2
# [4] = DiscoverX KINOMEscan KdELECT (Assay A), read-out: Biochemical TYK2_DiscoverX_JH2_BND_Kd
# [5] = KINOMEscan KdELECT (Assay A), read-out: Biochemical TYK2_DiscoverX_JH2_BND_Kd
# [6] = IFNa-stimulated, read-out: Cellular THP1_IFNa-pSTATS_IC50
# [7] = KINOMEscan KdELECT (Assay A), read-out: Biochemical TYK2_JH2_Kd
# [8] = IFNa-stimulated pSTAT5 (Tyr694/699), read-out: Cellular_THP1_IFNa-pSTATS_TYK2
Structure (SMILES),"IC50 [1, 3]","Kd [2, 4]","Kd [2, 5]",also measured
"CNc1ncc(-c2cccc(COCCOC)c2)c2cc(NC(=O)C3CC3)ncc12 [Example 172, N-(5-(3-((2-methoxyethoxy)methyl)phenyl)-8-(methylamino)-2,7-naphthyridin-3-yl)cyclopropanecarboxamide]",,,,"IC50 [1, 6]: > 500 nM; Kd [2, 7]: ≤ 100 nM"
"CNc1ncc(CCc2ccccc2)c2cc(NC(=O)C3CC3)ncc12 [Example 31, N-(8-(methylamino)-5-phenethyl-2,7-naphthyridin-3-yl)cyclopropanecarboxamide]",,,,"IC50 [1, 6]: > 500 nM; Kd [2, 7]: ≤ 100 nM"
"CNc1ncc(-c2nc3cc(OC)ccc3o2)c2cc(NC(=O)[C@H]3C[C@@H]3C)ncc12 [Example 1060, (1S,2S)-N-(5-(5-methoxybenzo[d]oxazol-2-yl)-8-(methylamino)-2,7-naphthyridin-3-yl)-2-methylcyclopropane-1-carboxamide]",,,≤ 100 nM,"IC50 [1, 8]: ≤ 500 nM"
"CNc1ncc(-c2ccc(OC(F)F)cc2)c2cc(NC(=O)C3CC3)ncc12 [Example 112, N-(5-(4-(difluoromethoxy)phenyl)-8-(methylamino)-2,7-naphthyridin-3-yl)cyclopropanecarboxamide]",,,,"IC50 [1, 6]: > 500 nM; Kd [2, 7]: ≤ 100 nM"
"CNc1ncc(-c2ccc(-c3cn(C)nn3)cc2)c2cc(NC(=O)C3CC3)ncc12 [Example 871, N-(5-(4-(1-methyl-1H-1,2,3-triazol-4-yl)phenyl)-8-(methylamino)-2,7-naphthyridin-3-yl)cyclopropanecarboxamide]",≤ 500 nM,,≤ 100 nM,
"CNc1ncc(-c2nc3cccc(N4CCC4COC)c3o2)c2cc(NC(=O)C3CC3)ncc12 (stereo not shown) [Example 263, N-(5-(7-(2-(methoxymethyl)azetidin-1-yl)benzo[d]oxazol-2-yl)-8-(methylamino)-2,7-naphthyridin-3-yl)cyclopropanecarboxamide]",> 500 nM,≤ 100 nM,,
"CNc1ncc(-c2ccccc2SC)c2cc(NC(=O)C3CC3)ncc12 [Example 47, N-(8-(methylamino)-5-(2-(methylthio)phenyl)-2,7-naphthyridin-3-yl)cyclopropanecarboxamide]",,,,"IC50 [1, 6]: > 500 nM; Kd [2, 7]: 100 to 1000 nM"
"CNc1ncc(C#Cc2ccc(OC3CN(S(C)(=O)=O)C3)cc2)c2cc(NC(=O)C3CC3)ncc12 [Example 715, N-(8-(methylamino)-5-((4-((1-(methylsulfonyl)azetidin-3-yl)oxy)phenyl)ethynyl)-2,7-naphthyridin-3-yl)cyclopropanecarboxamide]",≤ 500 nM,,≤ 100 nM,
"CNc1ncc(C#Cc2cccc3c2CCCC3=O)c2cc(NC(=O)C3CC3)ncc12 [Example 1019, N-(8-(methylamino)-5-((5-oxo-5,6,7,8-tetrahydronaphthalen-1-yl)ethynyl)-2,7-naphthyridin-3-yl)cyclopropanecarboxamide]",,,≤ 100 nM,"IC50 [1, 8]: ≤ 500 nM"
"CNc1ncc(C2=CCc3ccccc3O2)c2cc(NC(=O)C3CC3)ncc12 [Example 849, N-(5-(4H-chromen-2-yl)-8-(methylamino)-2,7-naphthyridin-3-yl)cyclopropanecarboxamide]",> 500 nM,,≤ 100 nM,
"CNc1ncc(C#Cc2ccc(OC[C@H](C)OC)cc2)c2cc(NC(=O)C3CC3)ncc12 [Example 704, (S)—N-(5-((4-(2-methoxypropoxy)phenyl)ethynyl)-8-(methylamino)-2,7-naphthyridin-3-yl)cyclopropanecarboxamide]",≤ 500 nM,,≤ 100 nM,

# Now from value to compound, other results behind:
"IC50 [1, 3]","Kd [2, 4]","Kd [2, 5]",Structure (SMILES),also measured
≤ 500 nM,≤ 100 nM,,"CNc1ncc(-c2nc3cc(OC[C@@H](C)O)ccc3o2)c2cc(NC(=O)C3CC3)ncc12 [Example 239, (R)—N-(5-(5-(2-hydroxypropoxy)benzo[d]oxazol-2-yl)-8-(methylamino)-2,7-naphthyridin-3-yl)cyclopropanecarboxamide]",
≤ 500 nM,≤ 100 nM,,"CNc1ncc(-c2nc3ccc(N4CCO[C@@H](C)C4)cn3n2)c2cc(NC(=O)[C@H]3C[C@H]3C)ncc12 [Example 539, (1S,2R)-2-methyl-N-(8-(methylamino)-5-(6-((S)-2-methylmorpholino)-[1,2,4]triazolo[1,5-a]pyridin-2-yl)-2,7-naphthyridin-3-yl)cyclopropane-1-carboxamide]",
≤ 500 nM,,≤ 100 nM,"CNc1ncc(C#Cc2ccc(OC)cn2)c2cc(NC(=O)[C@@H]3C[C@@H]3CF)ncc12 (single isomer, unassigned) [Example 823]",
≤ 500 nM,,≤ 100 nM,"CNc1ncc(C#Cc2ccnc(C(F)(F)F)c2)c2cc(NC(=O)C3CC3)ncc12 [Example 623, N-(8-(methylamino)-5-((2-(trifluoromethyl)pyridin-4-yl)ethynyl)-2,7-naphthyridin-3-yl)cyclopropanecarboxamide]",
≤ 500 nM,≤ 100 nM,,"CNc1ncc(-c2nc3cc(O[C@H](C)COC)ccc3o2)c2cc(NC(=O)C3CC3)ncc12 [Example 351, (R)—N-(5-(5-((1-methoxypropan-2-yl)oxy)benzo[d]oxazol-2-yl)-8-(methylamino)-2,7-naphthyridin-3-yl)cyclopropanecarboxamide]",
≤ 500 nM,≤ 100 nM,,"COc1ccc2oc(-c3cnc(N)c4cnc(NC(=O)C5CC5)cc34)nc2c1 [Example 369, N-(8-amino-5-(5-methoxybenzo[d]oxazol-2-yl)-2,7-naphthyridin-3-yl)cyclopropanecarboxamide]",
≤ 500 nM,≤ 100 nM,,"CNc1ncc(-c2nc3ccc(N4CCC(F)(F)CC4)cn3n2)c2cc(NC(=O)[C@H]3C[C@H]3C)ncc12 [Example 558, (1S,2R)—N-(5-(6-(4,4-difluoropiperidin-1-yl)-[1,2,4]triazolo[1,5-a]pyridin-2-yl)-8-(methylamino)-2,7-naphthyridin-3-yl)-2-methylcyclopropane-1-carboxamide]",
≤ 500 nM,,≤ 100 nM,"CNc1ncc(-c2nc3cc(N4CCCC4)ccc3o2)c2cc(NC(=O)C3CC3)ncc12 [Example 917, N-[8-(methylamino)-5-(5-pyrrolidin-1-yl-1,3-benzoxazol-2-yl)-2,7-naphthyridin-3-yl]cyclopropanecarboxamide]",
≤ 500 nM,,≤ 100 nM,"CCn1ncc(C#Cc2cnc(NC)c3cnc(NC(=O)C4CC4)cc23)n1 [Example 805, N-(5-((2-ethyl-2H-1,2,3-triazol-4-yl)ethynyl)-8-(methylamino)-2,7-naphthyridin-3-yl)cyclopropanecarboxamide]",
≤ 500 nM,≤ 100 nM,,"CNc1ncc(-c2nc3cc(C(F)F)ccc3o2)c2cc(NC(=O)C3CC3)ncc12 [Example 244, N-(5-(5-(difluoromethyl)benzo[d]oxazol-2-yl)-8-(methylamino)-2,7-naphthyridin-3-yl)cyclopropanecarboxamide]",
≤ 500 nM,≤ 100 nM,,"CNc1ncc(-c2nc3ccc(N4CCO[C@H](C)C4)cn3n2)c2cc(NC(=O)C3CC3)ncc12 [Example 477, (R)-N-(8-(methylamino)-5-(6-(2-methylmorpholino)-[1,2,4]triazolo[1,5-a]pyridin-2-yl)-2,7-naphthyridin-3-yl)cyclopropanecarboxamide]",
≤ 500 nM,,≤ 100 nM,"CNc1ncc(CCc2ccc3nnn(C)c3c2)c2cc(NC(=O)C3CC3)ncc12 [Example 866, N-(5-(2-(1-methyl-1H-benzo[d][1,2,3]triazol-6-yl)ethyl)-8-(methylamino)-2,7-naphthyridin-3-yl)cyclopropanecarboxamide]",
